PubChem BioAssay (NCI)
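1) Cells in 96-well plates. 2) Compound, 48 h, 5 concentrations. 3) Linear interpolation between surrounding doses. 4) Unreached endpoint = highest concentration. Abbreviation: GI50, concentration required for 50% inhibition of growth. At the TGI there is no net growth.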

How the values were obtained:
Assay in all cases: DTP human tumour cell line panel, 48 h
HCT-15 colon = test system: HCT-15 colon
CAKI-1 renal = test system: CAKI-1 renal
SF-268 CNS = test system: SF-268 CNS
PC-3 prostate = test system: PC-3 prostate
MDA-MB-231 breast = test system: MDA-MB-231 breast
NCI-H23 lung = test system: NCI-H23 lung
SNB-75 CNS = test system: SNB-75 CNS
COLO 205 colon = test system: COLO 205 colon
DU-145 prostate = test system: DU-145 prostate
HL-60(TB) leukemia = test system: HL-60(TB) leukemia
CCRF-CEM leukemia = test system: CCRF-CEM leukemia
MDA-N = test system: MDA-N
OVCAR-3 ovarian = test system: OVCAR-3 ovarian
U251 CNS = test system: U251 CNS
IGROV1 ovarian = test system: IGROV1 ovarian
BT-549 breast = test system: BT-549 breast
SF-295 CNS = test system: SF-295 CNS
NCI-H522 lung = test system: NCI-H522 lung
786-0 renal = test system: 786-0 renal
SK-MEL-28 melanoma = test system: SK-MEL-28 melanoma
KM12 colon = test system: KM12 colon
RPMI-8226 leukemia = test system: RPMI-8226 leukemia
HT29 colon = test system: HT29 colon
HCT-116 colon = test system: HCT-116 colon
RXF 393 renal = test system: RXF 393 renal
UACC-62 melanoma = test system: UACC-62 melanoma
HOP-62 NSCLC = test system: HOP-62 NSCLC
ACHN renal = test system: ACHN renal
MCF7 breast = test system: MCF7 breast
UACC-257 melanoma = test system: UACC-257 melanoma
SW-620 colon = test system: SW-620 colon
OVCAR-4 ovarian = test system: OVCAR-4 ovarian
SK-OV-3 ovarian = test system: SK-OV-3 ovarian
OVCAR-8 ovarian = test system: OVCAR-8 ovarian
HS 578T breast = test system: HS 578T breast
TK-10 renal = test system: TK-10 renal
HOP-92 NSCLC = test system: HOP-92 NSCLC
SK-MEL-5 melanoma = test system: SK-MEL-5 melanoma
SNB-19 CNS = test system: SNB-19 CNS
A549 NSCLC = test system: A549 NSCLC
NCI-H226 lung = test system: NCI-H226 lung
SK-MEL-2 melanoma = test system: SK-MEL-2 melanoma
MALME-3M melanoma = test system: MALME-3M melanoma
SF-539 CNS = test system: SF-539 CNS
K-562 leukemia = test system: K-562 leukemia
UO-31 renal = test system: UO-31 renal
MDA-MB-435 = test system: MDA-MB-435
M14 melanoma = test system: M14 melanoma
NCI/ADR-RES ovarian = test system: NCI/ADR-RES ovarian
SN12C renal = test system: SN12C renal
SR leukemia = test system: SR leukemia
HCC-2998 colon = test system: HCC-2998 colon
T-47D breast = test system: T-47D breast
NCI-H460 lung = test system: NCI-H460 lung
MOLT-4 leukemia = test system: MOLT-4 leukemia
OVCAR-5 ovarian = test system: OVCAR-5 ovarian
EKVX NSCLC = test system: EKVX NSCLC

SMILES: [Cu+2].[O-]c1ccc2ccccc2c1N=Nc1ccccc1.[O-]c1ccc2ccccc2c1N=Nc1ccccc1
- TGI (HCT-15 colon): > 100 µM
- TGI (CAKI-1 renal): > 100 µM
- GI50 (SF-268 CNS): > 100 µM
- TGI (SF-268 CNS): > 100 µM
- TGI (PC-3 prostate): > 100 µM
- TGI (MDA-MB-231 breast): > 100 µM
- TGI (NCI-H23 lung): > 100 µM
- TGI (SNB-75 CNS): > 100 µM
- TGI (COLO 205 colon): > 100 µM
- TGI (DU-145 prostate): > 100 µM
- TGI (HL-60(TB) leukemia): > 100 µM
- TGI (CCRF-CEM leukemia): > 100 µM
- TGI (MDA-N): > 100 µM
- TGI (OVCAR-3 ovarian): > 100 µM
- TGI (U251 CNS): > 100 µM
- TGI (IGROV1 ovarian): > 100 µM
- TGI (BT-549 breast): > 100 µM
- GI50 (SF-295 CNS): > 100 µM
- TGI (SF-295 CNS): > 100 µM
- TGI (NCI-H522 lung): > 100 µM
- GI50 (786-0 renal): 72.7 µM
- TGI (786-0 renal): > 100 µM
- TGI (SK-MEL-28 melanoma): > 100 µM
- GI50 (KM12 colon): > 100 µM
- TGI (KM12 colon): > 100 µM
- TGI (RPMI-8226 leukemia): > 100 µM
- TGI (HT29 colon): > 100 µM
- TGI (HCT-116 colon): > 100 µM
- TGI (RXF 393 renal): > 100 µM
- TGI (UACC-62 melanoma): > 100 µM
- TGI (HOP-62 NSCLC): > 100 µM
- TGI (ACHN renal): > 100 µM
- TGI (MCF7 breast): > 100 µM
- TGI (UACC-257 melanoma): > 100 µM
- TGI (SW-620 colon): > 100 µM
- TGI (OVCAR-4 ovarian): > 100 µM
- TGI (SK-OV-3 ovarian): > 100 µM
- TGI (OVCAR-8 ovarian): > 100 µM
- TGI (HS 578T breast): > 100 µM
- TGI (TK-10 renal): > 100 µM
- TGI (HOP-92 NSCLC): > 100 µM
- TGI (SK-MEL-5 melanoma): > 100 µM
- TGI (SNB-19 CNS): > 100 µM
- TGI (A549 NSCLC): > 100 µM
- TGI (NCI-H226 lung): > 100 µM
- TGI (SK-MEL-2 melanoma): > 100 µM
- TGI (MALME-3M melanoma): > 100 µM
- TGI (SF-539 CNS): > 100 µM
- TGI (K-562 leukemia): > 100 µM
- TGI (UO-31 renal): > 100 µM
- TGI (MDA-MB-435): > 100 µM
- TGI (M14 melanoma): > 100 µM
- TGI (NCI/ADR-RES ovarian): > 100 µM
- TGI (SN12C renal): > 100 µM
- TGI (SR leukemia): > 100 µM
- TGI (HCC-2998 colon): > 100 µM
- GI50 (T-47D breast): > 100 µM
- TGI (T-47D breast): > 100 µM
- TGI (NCI-H460 lung): > 100 µM
- TGI (MOLT-4 leukemia): > 100 µM
- TGI (OVCAR-5 ovarian): > 100 µM
- GI50 (EKVX NSCLC): > 100 µM
- TGI (EKVX NSCLC): > 100 µM
